Drawing on article PMC10671431, “New Derivatives of N-Hydroxybutanamide: Preparation, MMP Inhibition, Cytotoxicity, and Antitumor Activity” (International Journal of Molecular Sciences, 2023), this text covers IC50, toxicity classification and body weight change for one compound.

In data set [1] the test system is A-172. Briefly: Cytotoxicity, MTT test. Type of data set: cell-based, human. Particulars: Homo sapiens, A 172, 72 h of exposure. As to the method: Cell culture. A-172 (human glioblastoma cells), HepG2 (human hepatocellular carcinoma cells), M-HeLa (human cervical adenocarcinoma cells, M subclone), Vero (African green monkey kidney epithelial cells), and FetMSC (human embryonic mesenchymal stem cells) were purchased from the Russian Collection of Cell Cultures of Vertebrates (Institute of Cytology RAS, St. Petersburg, Russia). The U-251 MG cell line (human glioblastoma-astrocytoma) was purchased from the European Collection of Authenticated Cell Cultures (Salisbury, UK). All cells were grown at 37 °C in an atmosphere of 5% CO2. A-172 and Vero cells were cultured in DMEM medium (PanEco, Moscow, Russia). HepG2, HeLa, and U-251 MG cells were cultured in EMEM medium (PanEco). FetMSC cells were cultured in F12/DMEM medium (PanEco). All incubation media were supplemented with 10% fetal calf serum (BioWest, Nuaillé, France), 50 U/mL penicillin, and […] streptomycin (PanEco). Additionally, media for HeLa, HepG2, and U-251 MG cells were supplemented with 2 mM glutamine (PanEco) and 1% essential amino acids (PanEco), media for A-172 and Vero cells were supplemented with 4 mM glutamine, and the medium for FetMSC cells was supplemented with 3 mM glutamine. The medium for U-251 MG cells was additionally supplemented with 1 mM sodium pyruvate (PanEco).
Cytotoxicity studies. The cytotoxicity of the compounds was assessed using the MTT test. Cells were seeded into 96-well plates at varying concentrations of 5 × 10^4 cells/mL (A-172, Vero and HeLa), 7 × 10^4 cells/mL (HepG2 and U-251 MG), and 10 × 10^4 cells/mL (FetMSC). The studied compounds were added to the incubation medium 24 h after seeding at concentrations ranging from 7.8 μM to 500 μM. All compounds were dissolved in DMSO and diluted with the incubation medium to their final concentrations just before use. The incubation medium in wells was aspirated and replaced with medium containing the studied compounds. The final concentration of DMSO in all samples was 0.1%. Control samples were treated with 0.1% DMSO. After 72 h of exposure, 3-(4,5-dimethylthiazol-2-yl)-2,5-diphenyl-2H-tetrazolium bromide (MTT) (Dia-M, Moscow, Russia) was added to the incubation medium at a concentration of 0.5 mg/mL. The resulting MTT-formazan crystals were dissolved in DMSO. The optical density was measured at 570 nm with a background wavelength of 620 nm using a Spark 10M plate reader. IC50 values were determined using a median effect analysis from the dose–effect relationships.
Background: Formazan colour is commonly taken as a measure of viable cells.

In data set [2] the test system is BDF1 mice. Briefly: Acute toxicity in vivo. The protocol:
Acute toxicity. Experiments involving animals were conducted at the Unique Scientific Unit “Nursery and Vivarium of the FRC PCP MC RAS” in accordance with the rules established by the Commission on Bioethics of the FRC PCP MC RAS (protocol No. 7/22 dated 20 June 2022) and the European Convention for the Protection of Vertebrate Animals for experimental and scientific purposes. Clinically healthy BDF1 hybrid males weighing 20–22 g were utilized. The mice were housed in a conventional vivarium with a 12 h light regime and provided with free access to water and food. Each experimental group consisted of six animals. Compound 4 was dissolved in DMSO and then diluted with 0.9% NaCl to reduce the DMSO concentration to 10%. The solution was administered intraperitoneally at single doses ranging from 200 mg/kg to 1000 mg/kg. The control group received 10% DMSO in 0.9% NaCl intraperitoneally. The animals were monitored daily for 14 days, with attention given to their overall condition, activity, and appetite. At the end of the experiment, all animals were euthanized by inhalation of ether, followed by a pathoanatomical autopsy.

SMILES strings stand for the structures. “Also recorded” adds a separate entry of the source.

For orientation: IC50 means the concentration needed to halve the response being measured. Read a low IC50 as greater potency. In turn, `O=C(CCC(=O)Nc1ccc(I)cc1)NO` [Compound 4, N^1-hydroxy-N^4-(4-iodophenyl)butanediamide] displayed an IC50 in data set [1] of 418 ± 17.4 µM. The toxicity classification result in data set [2] (intraperitoneally, doses up to 1000 mg/kg, classification of [48]) is “slightly toxic”. The body weight change entry in data set [2] (single i.p. dose 300 mg/kg or lower, 300 mg/kg) was “stable increase in body weight; also recorded: did not impact weight gain”; in data set [2] (single i.p. dose 400 mg/kg), “slower weight gain”; in data set [2] (single i.p. dose 1000 mg/kg, within 7 days, partial recovery on day 14), “slight decrease in body weight”; in data set [2] (single i.p. doses 600 mg/kg and 800 mg/kg, entire observation period) it was “No significant changes in body weight”.
